# System: 156681-154-R-J1-PDC complex spheroid viability
# Experiment: Anticancer human tumor 156681-154-R-J1-PDC patient-derived melanoma cell line growth inhibition [CLK]
# Conditions: for IC50: curve of first compound; for viability, T/C: stronger effect = lower value
# Procedure, shortened: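 Multi-cell-type spheroids combined patient-derived tumor cells with HUVEC endothelial cells and human mesenchymal stem cells. Paired agents were dosed in half-log steps down from about clinical Cmax, or from 10 microM where Cmax was unknown.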
# [1] = second compound 0.0316 µM, first compound 0.0316 µM
# [2] = second compound 0.0316 µM, first compound 0.1 µM
# [3] = second compound 0.0316 µM, first compound 0.316 µM
# [4] = second compound 0.0316 µM, first compound 1 µM
# [5] = second compound 0.1 µM, first compound 0.0316 µM
# [6] = second compound 0.1 µM, first compound 0.1 µM
# [7] = second compound 0.1 µM, first compound 0.316 µM
# [8] = second compound 0.1 µM, first compound 1 µM
# [9] = second compound 0.316 µM, first compound 0.0316 µM
# [10] = second compound 0.316 µM, first compound 0.1 µM
# [11] = second compound 0.316 µM, first compound 0.316 µM
# [12] = second compound 0.316 µM, first compound 1 µM
# [13] = second compound 1 µM, first compound 0.0316 µM
# [14] = second compound 1 µM, first compound 0.1 µM
# [15] = second compound 1 µM, first compound 0.316 µM
# [16] = second compound 1 µM, first compound 1 µM
# [17] = second compound 3.16 µM, first compound 0.0316 µM
# [18] = second compound 3.16 µM, first compound 0.1 µM
# [19] = second compound 3.16 µM, first compound 0.316 µM
# [20] = second compound 3.16 µM, first compound 1 µM
# [21] = second compound 10 µM, first compound 0.0316 µM
# [22] = second compound 10 µM, first compound 0.1 µM
# [23] = second compound 10 µM, first compound 0.316 µM
# [24] = second compound 10 µM, first compound 1 µM
# 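Also: spheroids exposed to the agents for seven days.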
# 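For viability, T/C in this document: 100% = DMSO vehicle control viability.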
structure (smiles),measurement,setting,value
C=CC(=O)Nc1cc(Nc2nccc(-c3cn(C)c4ccccc34)n2)c(OC)cc1N(C)CCN(C)C + CNC(=O)c1ccc(Nc2nc(OC3CCCC3)c3c(-c4ccc5nc(C)oc5c4)c[nH]c3n2)c(OC)c1,IC50,second compound 0.0316 µM,> 300 nM
same,IC50,second compound 0.1 µM,> 300 nM
same,IC50,second compound 0.316 µM,> 300 nM
same,IC50,second compound 1 µM,242 nM
same,IC50,second compound 3.16 µM,2.45 nM
same,IC50,second compound 10 µM,< 0.949 nM
same,"viability, T/C","second compound 0.0316 µM, first compound 0.000949 µM",82.8%
same,"viability, T/C","second compound 0.0316 µM, first compound 0.003 µM",97.7%
same,"viability, T/C","second compound 0.0316 µM, first compound 0.00949 µM",90.6%
same,"viability, T/C","second compound 0.0316 µM, first compound 0.03 µM",111%
same,"viability, T/C","second compound 0.0316 µM, first compound 0.0949 µM",109%
same,"viability, T/C","second compound 0.0316 µM, first compound 0.3 µM",90%
same,"viability, T/C","second compound 0.1 µM, first compound 0.000949 µM",67.7%
same,"viability, T/C","second compound 0.1 µM, first compound 0.003 µM",64.1%
same,"viability, T/C","second compound 0.1 µM, first compound 0.00949 µM",61.8%
same,"viability, T/C","second compound 0.1 µM, first compound 0.03 µM",68.5%
same,"viability, T/C","second compound 0.1 µM, first compound 0.0949 µM",64.3%
same,"viability, T/C","second compound 0.1 µM, first compound 0.3 µM",64.8%
same,"viability, T/C","second compound 0.316 µM, first compound 0.000949 µM",71.5%
same,"viability, T/C","second compound 0.316 µM, first compound 0.003 µM",64.8%
same,"viability, T/C","second compound 0.316 µM, first compound 0.00949 µM",83.1%
same,"viability, T/C","second compound 0.316 µM, first compound 0.03 µM",62.7%
same,"viability, T/C","second compound 0.316 µM, first compound 0.0949 µM",63.2%
same,"viability, T/C","second compound 0.316 µM, first compound 0.3 µM",64%
same,"viability, T/C","second compound 1 µM, first compound 0.000949 µM",62.1%
same,"viability, T/C","second compound 1 µM, first compound 0.003 µM",56%
same,"viability, T/C","second compound 1 µM, first compound 0.00949 µM",53.5%
same,"viability, T/C","second compound 1 µM, first compound 0.03 µM",48.2%
same,"viability, T/C","second compound 1 µM, first compound 0.0949 µM",64.8%
same,"viability, T/C","second compound 1 µM, first compound 0.3 µM",43.6%
same,"viability, T/C","second compound 3.16 µM, first compound 0.000949 µM",50.1%
same,"viability, T/C","second compound 3.16 µM, first compound 0.003 µM",57.6%
same,"viability, T/C","second compound 3.16 µM, first compound 0.00949 µM",35.2%
same,"viability, T/C","second compound 3.16 µM, first compound 0.03 µM",47.2%
same,"viability, T/C","second compound 3.16 µM, first compound 0.0949 µM",37.9%
same,"viability, T/C","second compound 3.16 µM, first compound 0.3 µM",29.1%
same,"viability, T/C","second compound 10 µM, first compound 0.000949 µM",44.9%
same,"viability, T/C","second compound 10 µM, first compound 0.003 µM",41.8%
same,"viability, T/C","second compound 10 µM, first compound 0.00949 µM",31.9%
same,"viability, T/C","second compound 10 µM, first compound 0.03 µM",43.1%
same,"viability, T/C","second compound 10 µM, first compound 0.0949 µM",45%
same,"viability, T/C","second compound 10 µM, first compound 0.3 µM",24.2%
CCN1CCN(Cc2ccc(Nc3ncc(F)c(-c4cc(F)c5nc(C)n(C(C)C)c5c4)n3)nc2)CC1 + CNC(=O)c1ccc(Nc2nc(OC3CCCC3)c3c(-c4ccc5nc(C)oc5c4)c[nH]c3n2)c(OC)c1,IC50,second compound 0.0316 µM,825 nM
same,IC50,second compound 0.1 µM,429 nM
same,IC50,second compound 0.316 µM,429 nM
same,IC50,second compound 1 µM,394 nM
same,IC50,second compound 3.16 µM,< 3.16 nM
same,IC50,second compound 10 µM,< 3.16 nM
same,"viability, T/C","second compound 0.0316 µM, first compound 0.00316 µM",93%
same,"viability, T/C","second compound 0.0316 µM, first compound 0.01 µM",104%
same,"viability, T/C",[1],83.7%
same,"viability, T/C",[2],84.2%
same,"viability, T/C",[3],75.5%
same,"viability, T/C",[4],44.3%
same,"viability, T/C","second compound 0.1 µM, first compound 0.00316 µM",50.5%
same,"viability, T/C","second compound 0.1 µM, first compound 0.01 µM",72.3%
same,"viability, T/C",[5],68.2%
same,"viability, T/C",[6],57.9%
same,"viability, T/C",[7],52.9%
same,"viability, T/C",[8],38.6%
same,"viability, T/C","second compound 0.316 µM, first compound 0.00316 µM",85.4%
same,"viability, T/C","second compound 0.316 µM, first compound 0.01 µM",62%
same,"viability, T/C",[9],72.2%
same,"viability, T/C",[10],77.8%
same,"viability, T/C",[11],54%
same,"viability, T/C",[12],39%
same,"viability, T/C","second compound 1 µM, first compound 0.00316 µM",51.8%
same,"viability, T/C","second compound 1 µM, first compound 0.01 µM",56.5%
same,"viability, T/C",[13],51.3%
same,"viability, T/C",[14],60.2%
same,"viability, T/C",[15],61%
same,"viability, T/C",[16],24.2%
same,"viability, T/C","second compound 3.16 µM, first compound 0.00316 µM",61.6%
same,"viability, T/C","second compound 3.16 µM, first compound 0.01 µM",47.8%
same,"viability, T/C",[17],40.7%
same,"viability, T/C",[18],48%
same,"viability, T/C",[19],46.6%
same,"viability, T/C",[20],19.8%
same,"viability, T/C","second compound 10 µM, first compound 0.00316 µM",51.7%
same,"viability, T/C","second compound 10 µM, first compound 0.01 µM",38.5%
same,"viability, T/C",[21],43.8%
same,"viability, T/C",[22],51%
same,"viability, T/C",[23],41.9%
same,"viability, T/C",[24],21.7%
Nc1ccccc1NC(=O)c1ccc(CNC(=O)OCc2cccnc2)cc1 + CNC(=O)c1ccc(Nc2nc(OC3CCCC3)c3c(-c4ccc5nc(C)oc5c4)c[nH]c3n2)c(OC)c1,IC50,second compound 0.0316 µM,572 nM
same,IC50,second compound 0.1 µM,293 nM
same,IC50,second compound 0.316 µM,337 nM
same,IC50,second compound 1 µM,141 nM
same,IC50,second compound 3.16 µM,67.6 nM
same,IC50,second compound 10 µM,50.7 nM
same,"viability, T/C",[1],115%
same,"viability, T/C",[2],91.2%
same,"viability, T/C",[3],64.9%
same,"viability, T/C",[4],42%
same,"viability, T/C","second compound 0.0316 µM, first compound 3.16 µM",3.29%
same,"viability, T/C","second compound 0.0316 µM, first compound 10 µM",1.7%
same,"viability, T/C",[5],70%
same,"viability, T/C",[6],66.3%
same,"viability, T/C",[7],45.7%
same,"viability, T/C",[8],30.2%
same,"viability, T/C","second compound 0.1 µM, first compound 3.16 µM",3.46%
same,"viability, T/C","second compound 0.1 µM, first compound 10 µM",5.63%
same,"viability, T/C",[9],58.1%
same,"viability, T/C",[10],59.4%
same,"viability, T/C",[11],46%
same,"viability, T/C",[12],34.6%
same,"viability, T/C","second compound 0.316 µM, first compound 3.16 µM",4.74%
same,"viability, T/C","second compound 0.316 µM, first compound 10 µM",8.02%
same,"viability, T/C",[13],64.6%
same,"viability, T/C",[14],50.3%
same,"viability, T/C",[15],41.3%
same,"viability, T/C",[16],28.1%
same,"viability, T/C","second compound 1 µM, first compound 3.16 µM",4.08%
same,"viability, T/C","second compound 1 µM, first compound 10 µM",0.99%
same,"viability, T/C",[17],49.8%
same,"viability, T/C",[18],53.3%
same,"viability, T/C",[19],35.8%
same,"viability, T/C",[20],23.8%
same,"viability, T/C","second compound 3.16 µM, first compound 3.16 µM",3.27%
same,"viability, T/C","second compound 3.16 µM, first compound 10 µM",0.11%
same,"viability, T/C",[21],57.1%
same,"viability, T/C",[22],38.4%
same,"viability, T/C",[23],29.6%
same,"viability, T/C",[24],22.6%
same,"viability, T/C","second compound 10 µM, first compound 3.16 µM",2.77%
same,"viability, T/C","second compound 10 µM, first compound 10 µM",0.3%

# Reference: PubChem BioAssay AID2060627 (Molecular Pharmacology Branch, DTP, NCI, 2025)
